Measured values: patent US20040072767A1, “Glucopyranose derivatives and medicaments for preventing and/or treating HIV infection diseases comprising the same as an active ingredient” (ONO PHARMACEUTICAL CO., LTD., priority 1998, published 2004)

biological target: T1, CXCR4 (Homo sapiens, UniProt P61073); experiment: Inhibition experiment against induction activity of SDF-1 on transitory increase of Ca ion; format: cell-based; details: CCRF-HSB-2; test compound 10 μM; SDF-1β 30 nM added 3 minutes after compound; CCRF-HSB2 human T cells loaded with Fura-2AM; read-out: Inhibition rate (%)
T1 construct: host or cells: CCRF-HSB2 human T cells
T1 sequence (P61073 whole entry): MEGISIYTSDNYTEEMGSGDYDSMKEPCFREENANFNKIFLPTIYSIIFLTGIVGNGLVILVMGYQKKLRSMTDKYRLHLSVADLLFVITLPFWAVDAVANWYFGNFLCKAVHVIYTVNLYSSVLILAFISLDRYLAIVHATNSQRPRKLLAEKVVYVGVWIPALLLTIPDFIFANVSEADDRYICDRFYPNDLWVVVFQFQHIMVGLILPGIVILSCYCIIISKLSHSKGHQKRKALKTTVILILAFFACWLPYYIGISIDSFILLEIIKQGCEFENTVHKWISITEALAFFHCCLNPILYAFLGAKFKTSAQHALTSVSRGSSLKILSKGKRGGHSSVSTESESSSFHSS
From the text: As described above, for screening a compound inhibiting the binding of HIV to CXCR4 which is a receptor on T cell, it is a more direct procedure to carry out the screening in an assay system using HIV virus. However, use of HIV virus on a large scale screening is not practical owing to its difficulty of handling. On the other hand, since HIV and SDF-1 are both bound to CXCR4, it is expectable that there are some common characteristics between the CXCR4 binding sites of both HIV and SDF-1 sides and the SDF-1 and HIV binding sites of CXCR4 side. Therefore, in order to find out a compound inhibiting the adsorption of HIV virus to a cell, i.e., having an activity mechanism different from the existing anti-AIDS medicaments (inhibitors of reverse transcription and inhibitors of proteases), it is possible to utilize an assay system using SDF-1 which is an original ligand for CXCR4, instead of HIV. More particularly, as an example of the screening system of a compound inhibiting the binding of SDF-1 to CXCR4, a system of measuring an effect on transitory increase of Ca ion induced by SDF-1 through CXCR4 is practicable since CXCR4 is a G protein-conjugated seven-times transmembrane-type receptor.
A human T cell expressing CXCR4, for example cells of CCRF-HSB2 (ATCC No. CCL-120.1) were suspended into RPMI-1640 medium, fetal bovine serum (FBS) (10%), Fura-2AM (5 μM) (Dojin Kagaku, cat# 343-05401), Probenecid (2.5 mM), and a HEPES buffer (20 mM, pH 7.4) so as to be 5×10^6 cell/ml, and the suspension was heated at 37° C. for 30 minutes under a light-shielded condition. Then, a 4 to 8 fold-diluted Hanks solution (1× Hanks), HEPES (20 mM, pH 7.4) and Probenecid (2.5 mM) were added thereto, and the whole was heated for another 30 minutes. After the cells were washed with a solution of 1× Hanks, HEPES (20 mM, pH 7.4) and Probenecid (2.5 mM), they were re-suspended into the solution so as to be 2×10^6 cell/ml. For the T cell on which Fura-2AM had been loaded, the transitory increase of Ca induced by the addition of recombinant SDF-1β dissolved in PBS(−) was detected by use of a suitable Ca detector. In the inhibition experiment, the inhibitory effect of a test compound (10 μM) on the transitory increase of Ca induced by the addition of recombinant SDF-1β were measured by adding SDF-1β at an amount so as to be final concentration of, for example, 30 nM at 3 minutes after the addition of the test compound. An inhibition rate (%) was calculated according to the following equation.
Inhibition rate=(Ec−Ea)/Ec×100
In the equation, each symbol means as follows: […]
Ec: measured value of the transitory increase of Ca induced by SDF-1β
Ea: measured value of the transitory increase of Ca induced by SDF-1β when a test compound was added.

| SMILES | inhibition at 10 µM |
| --- | --- |
| CCCCCCCCCCC[C@H](CC(=O)N[C@H]1C(O)O[C@H](CO)[C@@H](OS(=O)(=O)O)[C@@H]1OC(=O)CCCCC)OC(=O)CCCCC (stereo partly drawn) [Example 2 (3), 2-deoxy-2-[3R-(hexanoyloxy)tetradecanoyl]amino-3-O-hexanoyl-4-O-sulfo-D-glucopyranose] | 79% |
| CCCCCCCCCCC[C@H](CC(=O)N[C@H]1C(O)O[C@H](CO)[C@@H](OS(=O)(=O)O)[C@@H]1OC(=O)CCCCCCCCC)OC(=O)CCCCCCCCC (stereo partly drawn) [Example 2 (4), 2-deoxy-2-[3R-(decanoyloxy)tetradecanoyl]amino-3-O-decanoyl-4-O-sulfo-D-glucopyranose] | 94% |
| CCCCCCCCCCCC(=O)O[C@H](CCCCCCCCCCC)CC(=O)N[C@H]1C(O)O[C@H](CO)[C@@H](OS(=O)(=O)O)[C@@H]1OC(=O)CCCCCCCCCCC (stereo partly drawn) [Example 2 (5), 2-deoxy-2-[3R-(dodecanoyloxy)tetradecanoyl]amino-3-O-dodecanoyl-4-O-sulfo-D-glucopyranose] | 99% |

same assay, conditions: test compound 10 μM; SDF-1β 30 nM added 3 minutes after compound; CCRF-HSB2 human T cells loaded with Fura-2AM

| SMILES | Inhibition rate (%) |
| --- | --- |
| CCCCCCCCCCC[C@@H](CC(=O)N[C@H]1C(O)O[C@H](CO)[C@@H](OS(=O)(=O)[O-])[C@@H]1OC(=O)CCCCCCCCc1ccccc1)OC(=O)CCCCCCCCc1ccccc1.[Na+] (stereo partly drawn) [Compound (1), 2-Deoxy-2-[3S-(9-phenylnonanoyloxy)tetradecanoyl]amino-3-O-(9-phenylnonanoyl)-4-O-sulfo-D-glucopyranose sodium salt] | 93% |
| O=C(C[C@H](CCCCCCc1ccccc1)OC(=O)CCCCCCCCc1ccccc1)N[C@H]1C(O)O[C@H](CO)[C@@H](OS(=O)(=O)O)[C@@H]1OC(=O)CCCCCCCCc1ccccc1 (stereo partly drawn) [Compound (2), 2-deoxy-2-[3S-(9-phenylnonanoyloxy)-9-phenylnonanoyl]amino-3-O-(9-phenylnonanoyl)-4-O-sulfo-D-glucopyranose] | 96% |
| CCCCCCCCCCC[C@@H](CC(=O)N[C@H]1C(O)O[C@H](CO)[C@@H](OS(=O)(=O)O)[C@@H]1OC(=O)CCCCCCCc1ccc(OC)cc1)OC(=O)CCCCCCCc1ccc(OC)cc1 (stereo partly drawn) [Compound (3)] | 97% |
| CCCCCCCCCCC[C@@H](CC(=O)N[C@H]1C(O)O[C@H](CO)[C@@H](OS(=O)(=O)O)[C@@H]1OC(=O)CCCCCCCCc1ccc(Cl)cc1)OC(=O)CCCCCCCCc1ccc(Cl)cc1 (stereo partly drawn) [Compound (4)] | 96% |
| CCCCCCCCCCC[C@@H](CC(=O)N[C@H]1C(O)O[C@H](CO)[C@@H](OS(=O)(=O)O)[C@@H]1OC(=O)CCCCc1ccc(CCCCC)cc1)OC(=O)CCCCc1ccc(CCCCC)cc1 (stereo partly drawn) [Compound (5), 2-deoxy-2-[3S-[5-(4-pentylphenyl)pentanoyloxy]tetradecanoyl]amino-3-O-[5-(4-pentylphenyl)pentanoyl]4-O-sulfo-D-glucopyranose] | 97% |
| O=C(CCCCCCCCc1ccc2ccccc2c1)N[C@H]1C(O)O[C@H](CO)[C@@H](OS(=O)(=O)O)[C@@H]1OC(=O)CCCCCCCCc1ccc2ccccc2c1 (stereo partly drawn) [Compound (6), 2-deoxy-2-[9-(2-naphthyl)nonanoyl]amino-3-O-[9-(2-naphthyl)nonanoyl]-40-sulfo-D-glucopyranose] | 97% |
| CCCCCCCCCCC[C@@H](CC(=O)N[C@H]1C(O)O[C@H](CO)[C@@H](OS(=O)(=O)O)[C@@H]1OC(=O)CCCCCCCOc1cc(Cl)cc(Cl)c1)OC(=O)CCCCCCCOc1cc(Cl)cc(Cl)c1 (stereo partly drawn) [Compound (7), 2-deoxy-2-[3S-[8-(3,5-dichlorophenoxy)octanoyloxy]tetradecanoyl]amino-3-O-[8-(3,5-dichlorophenoxy)octanoyl]-4-O-sulfo-D-glucopyranose] | 95% |
| CCCCCCCCCCCC(CC(=O)N[C@H]1COC[C@@H](OS(=O)(=O)O)[C@@H]1OC(=O)CCCCCCCCc1ccccc1)OC(=O)CCCCCCCCc1ccccc1 (stereo partly drawn) [Compound (8), 2-deoxy-2-[3RS-(9-phenylnonanoyloxy)tetradecanoyl]amino-3-O-(9-phenylnonanoyl)-4-O-sulfo-1,5-anhydro-D-xylitol] | 94% |
| CCCCCCCCCCCCCC(=O)O[C@H]1[C@H](OS(=O)(=O)O)[C@@H](CO)OC(O)[C@@H]1NC(=O)c1ccc(OCCCCCCCCCC)c(OCCCCCCCCCC)c1 (stereo partly drawn) [Compound (9)] | 93% |
| CCCCCCCCCCCCCC(=O)O[C@@H]1[C@@H](NC(=O)c2ccc(OCCCCCCCCCC)c(OCCCCCCCCCC)c2)[C@@H](OC)O[C@H](CO)[C@H]1OS(=O)(=O)O [Compound (10), methyl 2-deoxy-2-(3,4-didecyloxybenzoyl) amino-3-O-tetradecanoyl-4-O-sulfo-α-D-glucopyranoside] | 91% |
| CCCCCCCCCCC[C@@H](CC(=O)N[C@H]1CO[C@H](C)[C@@H](OS(=O)(=O)O)[C@@H]1OC(=O)CCCCCCCCc1ccccc1)OC(=O)CCCCCCCCc1ccccc1 [Compound (12), 2,6-deoxy-2-[3S-(9-phenylnonanoyloxy)tetradecanoyl]amino-3-O-(9-phenylnonanoyl)-4-O-sulfo-1,5-anhydro-D-glucitol] | 94% |
| CCCCCCCCCCCC(CC(=O)NC1CCCC(OS(=O)(=O)O)C1OC(=O)CCCCCCCCc1ccccc1)OC(=O)CCCCCCCCc1ccccc1 (stereo not drawn) [Compound (13), 3(syn)-[3RS-(9-phenylnonanoyloxy)tetradecanoyl]amino-2RS (anti)-(9-phenylnonanoyloxy)cyclohexa-1RS-yl-O-sulfonic acid] | 86% |
| CCCCCCCCCCC[C@@H](CC(=O)N[C@H]1C(O)O[C@H](CO)[C@@H](OS(=O)(=O)[O-])[C@@H]1OC(=O)CCCCCCCCc1ccccc1)OC(=O)CCc1ccccc1.[Na+] (stereo partly drawn) [Compound (14), 2-Deoxy-2-[3S-[3-phenylpropanoyloxy]tetradecanoyl]amino-3-O-[9-phenylnonanoyl]4-O-sulfo-D-glucopyranose sodium salt] | 96% |
| CCCCCCCCCCC[C@@H](CC(=O)N[C@H]1C(O)O[C@H](CO)[C@@H](OS(=O)(=O)[O-])[C@@H]1OC(=O)CCc1ccccc1)OC(=O)CCCCCCCCc1ccccc1.[Na+] (stereo partly drawn) [Compound (15), 2-Deoxy-2-[3S-[9-phenylnonanoyloxy]tetradecanoyl]amino-3-O-[3-phenylpropanoyl]-4-O-sulfo-D-glucopyranose sodium salt] | 93% |
| CCCCCCCCC[C@@H](CC(=O)N[C@H]1C(O)O[C@H](CO)[C@@H](OS(=O)(=O)[O-])[C@@H]1OC(=O)CCCCCCCCc1ccccc1)OC(=O)CCCCCCCCc1ccccc1.[Na+] (stereo partly drawn) [Compound (16), 2-Deoxy-2-[3S-[9-phenylnonanoyloxy]dodecanoyl]amino-3-O-[9-phenylnonanoyl]4-O-sulfo-D-glucopyranose sodium salt] | 92% |
| CCCCCCCCCCCCC[C@@H](CC(=O)N[C@H]1C(O)O[C@H](CO)[C@@H](OS(=O)(=O)[O-])[C@@H]1OC(=O)CCCCCCCCc1ccccc1)OC(=O)CCCCCCCCc1ccccc1.[Na+] (stereo partly drawn) [Compound (17), 2-Deoxy-2-[3S-[9-phenylnonanoyloxy]hexadecanoyl]amino-3-O-[9-phenylnonanoyl]4-O-sulfo-D-glucopyranose sodium salt] | 93% |
| CCCCCCCCCCC[C@H](CC(=O)N[C@H]1C(O)O[C@H](CO)[C@@H](OS(=O)(=O)[O-])[C@@H]1OC(=O)CCCCCCCCc1ccccc1)OC(=O)CCCCCCCCc1ccccc1.[Na+] (stereo partly drawn) [Compound (18), 2-Deoxy-2-R[3-[9-phenylnonanoyloxy]tetradecanoyl]amino-3-O-[9-phenylnonanoyl]4-O-sulfo-D-glucopyranose sodium salt] | 91% |
| CCCCCCCCCCCCCC(=O)O[C@@H](CCCCCCCCCCC)CC(=O)N[C@H]1C(O)O[C@H](C)[C@@H](OS(=O)(=O)O)[C@@H]1OC(=O)CCCCCCCCCCCCC (stereo partly drawn) [Example 4, 2,6-deoxy-2-[3S-(tetradecanoyloxy)tetradecanoyl]amino-3-O-tetradecanoyl-4-O-sulfo-D-glucopyranose] | 92% |
